Results: PMC7036544, “Persistent candida arthritis successfully treated with micafungin instillation and surgery. A case report” (Medical Mycology Case Reports, 2019)
Starred links: 1 amine or outer side, 2 acyl side, 3 side chain; linkers in the order of their positions; H or OH if unused. Positions of bridges follow the written chain, without caps; N, C: chain ends. Non-standard residues stand in square brackets, D forms with d. Residues, ends and D or L forms follow the SMILES beside them. *: point of attachment. hTyr(3S-OH,4S-OH,3'-OSO3H) = N[C@H](C(=O)O)[C@H](O)[C@@H](O)c1ccc(O)c(OS(=O)(=O)O)c1; Orn(4R-OH,5R-OH) = O=C([C@H](C[C@@H](O)[C@@H](O)N[*:3])N[*:1])[*:2]; Pro(3S-OH,4S-Me) = C[C@H]1CN[C@H](C(=O)O)[C@H]1O; X1 = CCCCCOc1ccc(-c2cc(-c3ccc(C(=O)*)cc3)no2)cc1; Gln(3R-OH) = NC(=O)C[C@@H](O)[C@H](N)C(=O)O; Hyp = O=C(O)[C@@H]1C[C@@H](O)CN1

Experiments:
[1] = Micafungin concentration in joint (synovial) fluid of the patient after intra-articular instillation; type: in vivo, human; conditions: one patient; day 19; joint fluid aspirated 24 hours after intra-articular instillation of 3mg micafungin (trough); IA 3mg OD day 17 – day 24; single measurement
Experimental: (§1) C. krusei has been identified with the use of CHROMagar™ with subsequent identification by Maldi-TOF, with database MALDI BDAL Database version 8.0. Micafungin concentrations were measured (laboratory of pharmacy, University Hospital Nijmegen, the Netherlands) in serum and joint fluid. The concentrations in serum 12 hours after the administration of 100mg intravenously at day 13 and 16 of therapy were 4.5 and 1.5mg/L respectively and concentration in synovial fluid 24 hours after installation of 3mg of micafungin in the knee was 11mg/L at day 19, as well presented in Table 1. Reference concentrations of micafungin in serum derived from 2 studies in critically ill patients trough level 1.4–3.1 mg/L were described. […] Administration of 100mg once daily results in trough serum concentration levels of 2 mg-L [14]. In hematology patients reference concentrations after intravenous micafungin are available as well [15].

[2] = tested on: C. krusei; assay: MIC of micafungin for the patient's C. krusei; type: cell-based, Candida krusei; conditions: isolate of the patient
[3] = Micafungin concentration in serum of the patient; type: in vivo, human; conditions: one patient, single measurement
Experimental: as §1, with “serum 12 hours after the administration of 100mg intravenously at day 13 and 16 of therapy were 4.5 and 1.5mg/L respectively” left out

[4] = critically ill patients, 2 studies; cited from earlier work
[5] = tested on: C. krusei knee arthritis; assay: Clinical outcome of C. krusei knee arthritis; type: in vivo, human; conditions: one patient; instillation of micafungin in the knee plus intravenous micafungin and arthroscopic debridement
From the text: A week later, the patient was readmitted for a second course of chemotherapy and amphotericin-B oral solution was given to prevent a new episode of translocation of C. krusei. During this hospital stay they hit their left knee on the side of the bed. Their knee continued to be painful and as a knee effusion was noted three days after injury, the orthopedic surgeon was consulted. On physical examination a large effusion of their left knee was found. The joint was not visibly red, but was warm on palpation. Their temperature was 38.4° Celsius. A plain knee radiograph of the knee was normal. An aspiration of the affected knee was performed and the joint fluid was sent for culture, this day was considered as day 0. Day 1 the joint aspiration grew C. krusei for which intravenous micafungin was restarted at a dose of 100mg twice daily. As the patient was deeply thrombopenic as well as neutropenic at that time, no arthroscopic drainage and lavage was performed but instead the knee was repeatedly drained by needle aspiration. On the day of the first needle aspiration of the knee and for the next 10 days, blood cultures were positive for C. krusei as well. Furthermore, repeated needle aspirations of the knee continued to grow C. krusei. An echocardiography at day 6 was normal. […]

[6] = healthy subjects; cited from earlier work
[7] = reconstitution in NaCl 0.9%; cited from earlier work
From the text: Synovial fluid is a transudate of plasma, so dissolution of micafungin in synovial fluid will be likely. Moreover, diffusion from plasma to the synovial fluid will occur. Unfortunately, data about the extent of diffusion from plasma to the synovial fluid are not available. The possible side effects as well as the possible toxic effects on cartilage of micafungin when administered directly into a joint are unknown. However, we decided to administer micafungin through direct intra-articular instillation as, despite prolonged high-dose intravenous micafungin therapy, blood as well as synovial cul ...

[8] = Local toxicity in the knee joint after intra-articular micafungin; type: in vivo, human; conditions: one patient; intra-articular instillation, local concentration 11mg/l

CCCCCOc1ccc(-c2cc(-c3ccc(C(=O)N[C@H]4C[C@@H](O)[C@@H](O)NC(=O)[C@@H]5[C@@H](O)[C@@H](C)CN5C(=O)[C@H]([C@H](O)CC(N)=O)NC(=O)[C@H]([C@H](O)[C@@H](O)c5ccc(O)c(OS(=O)(=O)O)c5)NC(=O)[C@@H]5C[C@@H](O)CN5C(=O)[C@H]([C@@H](C)O)NC4=O)cc3)no2)cc1 [micafungin] (X1-[Orn(4R-OH,5R-OH)]T[Hyp][hTyr(3S-OH,4S-OH,3'-OSO3H)][Gln(3R-OH)][Pro(3S-OH,4S-Me)]; lactam 1-C)
Micafungin concentration in synovial fluid (joint) [1]: 11 mg/L | MIC of the C. krusei [2]: 0.125 µg/mL | Micafungin concentration in serum ([3]; 12 hours after administration of 100mg intravenously, day 16 of therapy): 1.5 mg/L | Micafungin concentration (trough serum) ([3]; day 14, IV 100mg BID day 1 – day 15): 4.5 mg/L | Micafungin concentration (trough serum) ([3]; day 17 (day of surgery), IV 200mg OD day 16 – day 32): 1.5 mg/L | Reference concentration of micafungin in serum, trough level [4]: 1.4 to 3.1 mg/L | Clinical outcome [5]: completely recovered | Half-life [6]: 15 h | Volume of distribution [6]: 0,2 L/kg | pH after reconstitution [7]: 5–7 | Local toxicity of the joint [8]: no local toxicity was observed
